The subject of one series is mice. The series is described as follows: α amanitine test (mortality). Conditions: 20 per group, 50 mg/kg i.v., 0.7 mg/kg α amanitine i.p. 1 h later, observed 7 days. The class given is in vivo. On the procedure: (§1) These tests have been described in the already-quoted work by G. Vogel et al. published in Arzneimittelforschung, volume 25 (1975), pages 82 to 89 and 179 to 188.
In the α amanitine test the mice received in groups of 20 animals each 50 mg/kg of N-(5-(trans-2,3-dihydro-7-methoxy-3-methyl-5-(E)-propenylbenzofuran-2-yl)-2--hydroxy-3-methoxyphenyl-methyl)-N) (2-hydroxyethyl)-N-methyl ammonium chloride and for comparison Silymarine intravenously and an hour later 0.7 mg/kg of α amanitine intraperitoneally.

Series [1] has as its system serum enzymes GOT and GPT. The series can be described thus: galactosamine test (liver protection, serum enzymes GOT and GPT). The class given is in vivo. The conditions noted are these: rats. Here is the method:
as §1
In the galactosamine tests the rats received in groups each of 15 animals 100 mg/kg of the compound to be tested N-(5-(trans-2,3-dihydro-7-methoxy-3-methyl-5-(E)-propenylbenzofuran-2-yl)- 2-hydroxy-3-methoxy-phenylmethyl)-N-(2-hydroxyethyl)-N-methyl-ammonium chloride and for comparison purposes Silymarine in the tragacanth suspension perorally, one hour later interperitoneally 350 mg/kg of galactosamine hydrochloride and 24 hours later blood samples were taken for determining the serum enzymes GOT and GPT.

Series [2] can be described thus: toxicologic investigations (LD50). Conditions: rat, in vivo, po; rats, peroral application. The source says: The toxicologic investigations indicate a good compatibility of the compounds produced by the process according to the invention.
In series [3] the test system is experimental liver damage. The series can be described thus: hexobarbitone sleep test (experimental liver damage by carbon tetrachloride). The class given is in vivo. Conditions: rats. On the procedure: A standard testing process for pharmacological effect for experimental liver damage is the hexobarbitone sleep test, whose execution is described among others in a work by G. Vogel et al. in the Arzneimittelforschung, volume 25 (1975), pp. 82-89 and pp. 179-188. For this purpose 100 mg/kg of the compound to be tested were given to rats in groups each of 15 animals in carboxymethyl cellulose intraperitoneally and 90 minutes later 0.3 ml/kg carbon tetrachloride in olive oil by means of a throat probe. The rats were anaesthetised 48 hours later by intraperitoneal dosing of 70 mg/kg of hexabarbitone and the sleep duration was determined: […]

The mark [4] stands for this setting: 100 mg/kg perorally, enzyme GPT.
[5] abbreviates: 15 per group, 100 mg/kg perorally in tragacanth suspension, 350 mg/kg galactosamine hydrochloride i.p. 1 h later, blood samples 24 h later.

Here are results for two molecules from patent publication US4256764A, “Process for making derivatives of dimers of isoeugenol” (PLC Pharmaceutical Licenses Co. Ltd., priority 1978, dated 1981).

A word on the LD50: it is the dose at which mortality reaches 50%. Low readings indicate a more toxic substance, high ones a less toxic substance. Regarding `C/C=C/c1cc(OC)c2c(c1)[C@@H](C)[C@H](c1cc(CN(C)CCO)c(O)c(OC)c1)O2.Cl` (relative stereo) [N-(5-(trans-2,3-dihydro-7-methoxy-3-methyl-5-(E)-propenylbenzofuran-2-yl)-2-hydroxy-3-methoxy-phenylmethyl)-N-(2-hydroxyethyl)-N-methyl-ammonium chloride], in the series on mice, the mortality rate was 20%. Further, in series [1] (setting [4]), the “effect on GPT compared with Silymarine” value is on record as “clearly better than that of Silymarine” and the “statistical significance of the effect on GPT” value is “highly significant”. Further, in series [1] (setting [5]), the GOT was determined as 422 and the GPT turned out to be 185. Further, the LD50 in series [2] lay in the range of 4000 to 16000 mg/kg.
Turning to `C/C=C/c1cc(OC)c2c(c1)[C@@H](C)[C@H](c1ccc(O)c(OC)c1)O2` (relative stereo) [dehydrodiisoeugenol, trans-2,3-dihydro-2-(4-hydroxy-3-methoxyphenyl)-7-methoxy-3-methyl-5-(E)-propenylbenzofurane], the “statistical significance of the effect (sleep duration)” value in series [3] (100 mg/kg i.p., carbon tetrachloride) is on record as “highly significant”. Also, the sleep duration in series [3] (15 per group, 100 mg/kg i.p. in carboxymethyl cellulose, 0.3 ml/kg carbon tetrachloride 90 min later, 70 mg/kg hexobarbitone i.p. after 48 h) is 97 min.
